Drawing on ChEMBL document CHEMBL1158224, “Bioactive ent-kaurene diterpenoids from Annona senegalensis” (J Nat Prod, 1996), this text covers EC50 and LC50 for 4 compounds.

SMILES strings stand for the structures. Converted amounts (≈) assume the structure as drawn.

Data set [1] deals with MCF7. The data set is described as follows: Cytotoxicity against human MCF7 cells after 7 days by MTT assay. The data set is classed as functional. To be noted: MCF7, 168 h, read-out: ED50 (the source's name).
Data set [2] deals with PC-3. The data set is described as follows: Cytotoxicity against human PC3 cells after 7 days by MTT assay. It is filed as functional. To be noted: PC-3, 168 h, read-out: ED50 (the source's name).
Data set [3] deals with A549. The data set is described as follows: Cytotoxicity against human A549 cells after 7 days by MTT assay. It is filed as functional. Conditions: A549, 168 h, read-out: ED50 (the source's name).
For data set [4], the system named is HT-29. Description: Cytotoxicity against human HT29 cells after 7 days by MTT assay. It is filed as functional. Conditions: HT-29, 168 h, read-out: ED50 (the source's name).
Data set [5] concerns A498. The data set is described as follows: Cytotoxicity against human A498 cells after 7 days by MTT assay. It is filed as functional. Conditions: A498, 168 h, read-out: ED50 (the source's name).
For data set [6], the system named is MIA PaCa-2. Description: Cytotoxicity against human MIAPaCa2 cells after 7 days by MTT assay. To be noted: MIA PaCa-2, 168 h, read-out: ED50 (the source's name). It is filed as functional.
Data set [7] is described as follows: Toxicity against brine shrimp. The data set is classed as organism-based. Conditions: artemia, in vivo.

As for `CC(=O)OC[C@@]1(OC(C)=O)C[C@@]23CC[C@H]4[C@@](C)(CCC[C@@]4(C)C(=O)O)[C@H]2CC[C@@H]1C3`, the EC50 in data set [1] was above 20 µg/mL; in data set [2], 17.7 µg/mL (≈ 42.1 µM).

With `COC(=O)[C@]1(C)CCC[C@@]2(C)[C@H]3CC[C@@H]4C[C@@]3(CC[C@@H]21)C[C@@H]4C(=O)O`, the figures for the EC50 in data set [1] and in data set [2] were above 20 µg/mL and 17.4 µg/mL (≈ 49.9 µM), respectively.

For `COc1cccc2c1C(=O)c1c(O)c3c(c(O)c1C2=O)C[C@@](O)(C(=O)CO)C[C@@H]3O[C@H]1C[C@H](N)[C@H](O)[C@H](C)O1` [DOXORUBICIN], the EC50 in data set [3] worked out at 0.00506 µg/mL (≈ 0.00931 µM); in data set [1], 0.152 µg/mL (≈ 0.28 µM); in data set [4], 0.0437 µg/mL (≈ 0.0804 µM); in data set [5], 0.01 µg/mL (≈ 0.0184 µM); in data set [2] it was 0.0223 µg/mL (≈ 0.041 µM); in data set [6] it was 0.00379 µg/mL (≈ 0.00697 µM).

`C=C1C[C@@]23CC[C@H]4[C@@](C)(CCC[C@@]4(C)C(=O)O)[C@@H]2CC[C@@H]1C3` [KAURENOIC ACID] came in with an LC50 in data set [7] of 16 µg/mL (≈ 52.9 µM). Further, the EC50 turned out to be 13.6 µg/mL (≈ 44.9 µM) in data set [3]; 1 µg/mL (≈ 3.31 µM) in data set [1]; 31.4 µg/mL (≈ 104 µM) in data set [4]; 48 µg/mL (≈ 159 µM) in data set [5]; 15.2 µg/mL (≈ 50.2 µM) in data set [2]; 22.1 µg/mL (≈ 73.2 µM) in data set [6].
